Laboratory results from ChEMBL document CHEMBL1287680, “C-11 diamino cryptolepine derivatives NSC748392, NSC748393, and NSC748394: anticancer profile and G-quadruplex stabilization” (Bioorg Med Chem Lett, 2010).

Assays:
[1] = test system: Nucleic Acid; details: Homo sapiens
Description: Binding affinity to human G-quadruplex DNA assessed as change in melting temperature by FRET-melting assay

[2] = test system: SK-OV-3; experiment: cells; details: Homo sapiens
Description: Anticancer activity against human SKOV3 cells

[3] = test system: OVCAR-8; experiment: cells; details: Homo sapiens
Description: Anticancer activity against human OVCAR8 cells

[4] = test system: OVCAR-5; experiment: cells; details: Homo sapiens
Description: Anticancer activity against human OVCAR5 cells

[5] = test system: UACC-257; experiment: cells; details: Homo sapiens
Description: Anticancer activity against human UACC257 cells

[6] = test system: M14; experiment: cells; details: Homo sapiens
Description: Anticancer activity against human M14 cells

[7] = test system: Malme-3M; experiment: cells; details: Homo sapiens
Description: Anticancer activity against human MALME-3M cells

[8] = test system: SNB-19; experiment: cells; details: Homo sapiens
Description: Anticancer activity against human SNB19 cells

[9] = test system: SF-539; experiment: cells; details: Homo sapiens
Description: Anticancer activity against human SF539 cells

[10] = test system: SF-295; experiment: cells; details: Homo sapiens
Description: Anticancer activity against human SF295 cells

[11] = test system: SF-268; experiment: cells; details: Homo sapiens
Description: Anticancer activity against human SF268 cells

[12] = test system: KM12; experiment: cells; details: Homo sapiens
Description: Anticancer activity against human KM12 cells

[13] = test system: HCT-15; experiment: cells; details: Homo sapiens
Description: Anticancer activity against human HCT15 cells

[14] = test system: NCI-H322M; experiment: cells; details: Homo sapiens
Description: Anticancer activity against human NCI-H322M cells

[15] = test system: NCI-H23; experiment: cells; details: Homo sapiens
Description: Anticancer activity against human NCI-H23 cells

[16] = test system: NCI-H226; experiment: cells; details: Homo sapiens
Description: Anticancer activity against human NCI-H226 cells

[17] = test system: HOP-92; experiment: cells; details: Homo sapiens
Description: Anticancer activity against human HOP92 cells

[18] = test system: EKVX; experiment: cells; details: Homo sapiens
Description: Anticancer activity against human EKVX cells

[19] = test system: A549; experiment: cells; details: Homo sapiens
Description: Anticancer activity against human A549 cells

[20] = test system: SR; experiment: cells; details: Homo sapiens
Description: Anticancer activity against human SR cells

[21] = cells; details: Homo sapiens
Description: Anticancer activity against human RPMI8266 cells

[22] = test system: Vero; experiment: cells; details: Chlorocebus sabaeus, 48 h
Description: Cytotoxicity against african green monkey Vero cells after 48 hrs by MTT assay

[23] = test system: T47D; experiment: cells; details: Homo sapiens
Description: Anticancer activity against human T47D cells

[24] = test system: MDA-MB-468; experiment: cells; details: Homo sapiens
Description: Anticancer activity against human MDA-MB-468 cells

[25] = test system: MDA-MB-435; experiment: cells; details: Homo sapiens
Description: Anticancer activity against human MDA-MB-435 cells

[26] = cells; details: Homo sapiens, Hs-578T
Description: Anticancer activity against human Hs 578T cells

[27] = test system: NCI/ADR-RES; experiment: cells; details: Homo sapiens
Description: Anticancer activity against human NCI/ADR-RES cells

[28] = test system: PC-3; experiment: cells; details: Homo sapiens
Description: Anticancer activity against human PC3 cells

[29] = test system: UO-31; experiment: cells; details: Homo sapiens
Description: Anticancer activity against human UO31 cells

[30] = test system: TK-10; experiment: cells; details: Homo sapiens
Description: Anticancer activity against human TK10 cells

[31] = test system: RXF 393; experiment: cells; details: Homo sapiens
Description: Anticancer activity against human RXF393 cells

[32] = test system: CAKI-1; experiment: cells; details: Homo sapiens
Description: Anticancer activity against human Caki1 cells

[33] = test system: ACHN; experiment: cells; details: Homo sapiens
Description: Anticancer activity against human ACHN cells

[34] = in vivo; details: mouse, cancer cell lines
Description: Toxicity in cancer cells containing hollow fiber implanted mouse

`CCN(CC)CCCCNc1c2ccccc2[n+](C)c2c1[nH]c1ccccc12.[Cl-]` gave a ΔTm [1] of 20.9 °C, a GI50 ([2]; SK-OV-3, read-out: pGI50 (converted)) of 251 nM and a CC50 ([2]; SK-OV-3, read-out: pLC50 (converted)) of 100000 nM. It also gave a TGI ([2]; SK-OV-3, read-out: pTGI) of 1820 nM, a GI50 ([3]; OVCAR-8, read-out: pGI50 (converted)) of 617 nM and a CC50 ([3]; OVCAR-8, read-out: pLC50 (converted)) greater than 100000 nM. It also gave a TGI ([3]; OVCAR-8, read-out: pTGI) of 10200 nM, a GI50 ([4]; OVCAR-5, read-out: pGI50 (converted)) of 851 nM and a CC50 ([4]; OVCAR-5, read-out: pLC50 (converted)) greater than 100000 nM. The TGI ([4]; OVCAR-5, read-out: pTGI) was 4170 nM, the GI50 ([5]; UACC-257, read-out: pGI50 (converted)) was 1550 nM and the CC50 ([5]; UACC-257, read-out: pLC50 (converted)) was greater than 100000 nM. It also gave a TGI ([5]; UACC-257, read-out: pTGI) of 5750 nM, a GI50 ([6]; M14, read-out: pGI50 (converted)) of 1350 nM and a CC50 ([6]; M14, read-out: pLC50 (converted)) of 7410 nM. The TGI ([6]; M14, read-out: pTGI) was 3160 nM, the GI50 ([7]; read-out: pGI50 (converted)) was 204 nM and the CC50 ([7]; read-out: pLC50 (converted)) was 2510 nM. It also gave a TGI ([7]; read-out: pTGI) of 646 nM, a GI50 ([8]; SNB-19, read-out: pGI50 (converted)) of 224 nM and a CC50 ([8]; SNB-19, read-out: pLC50 (converted)) of 89100 nM. The TGI ([8]; SNB-19, read-out: pTGI) was 871 nM, the GI50 ([9]; SF-539, read-out: pGI50 (converted)) was 427 nM and the CC50 ([9]; SF-539, read-out: pLC50 (converted)) was 4070 nM. The TGI ([9]; SF-539, read-out: pTGI) was 1620 nM, the GI50 ([10]; SF-295, read-out: pGI50 (converted)) was 603 nM and the CC50 ([10]; SF-295, read-out: pLC50 (converted)) was greater than 100000 nM. The TGI ([10]; SF-295, read-out: pTGI) was 5010 nM, the GI50 ([11]; SF-268, read-out: pGI50 (converted)) was 224 nM and the CC50 ([11]; SF-268, read-out: pLC50 (converted)) was 33100 nM. For the same molecule, the TGI ([11]; SF-268, read-out: pTGI) was 1580 nM, the GI50 ([12]; KM12, read-out: pGI50 (converted)) was 372 nM and the CC50 ([12]; KM12, read-out: pLC50 (converted)) was 70800 nM. The TGI ([12]; KM12, read-out: pTGI) was 4470 nM, the GI50 ([13]; HCT-15, read-out: pGI50 (converted)) was 11500 nM and the CC50 ([13]; HCT-15, read-out: pLC50 (converted)) was greater than 100000 nM. It also gave a TGI ([13]; HCT-15, read-out: pTGI) of 49000 nM, a GI50 ([14]; read-out: pGI50 (converted)) of 275 nM and a CC50 ([14]; read-out: pLC50 (converted)) greater than 100000 nM. It also gave a TGI ([14]; read-out: pTGI) of 2750 nM, a GI50 ([15]; NCI-H23, read-out: pGI50 (converted)) of 191 nM and a CC50 ([15]; NCI-H23, read-out: pLC50 (converted)) of 3470 nM. For the same molecule, the TGI ([15]; NCI-H23, read-out: pTGI) was 724 nM, the GI50 ([16]; NCI-H226, read-out: pGI50 (converted)) was 166 nM and the CC50 ([16]; NCI-H226, read-out: pLC50 (converted)) was greater than 100000 nM. For the same molecule, the TGI ([16]; NCI-H226, read-out: pTGI) was 676 nM, the GI50 ([17]; HOP-92, read-out: pGI50 (converted)) was 263 nM and the CC50 ([17]; HOP-92, read-out: pLC50 (converted)) was greater than 100000 nM. For the same molecule, the TGI ([17]; HOP-92, read-out: pTGI) was 955 nM, the GI50 ([18]; read-out: pGI50 (converted)) was 269 nM and the CC50 ([18]; read-out: pLC50 (converted)) was greater than 100000 nM. The TGI ([18]; read-out: pTGI) was 3630 nM, the GI50 ([19]; A549, read-out: pGI50 (converted)) was 52.5 nM and the CC50 ([19]; A549, read-out: pLC50 (converted)) was greater than 100000 nM. For the same molecule, the TGI ([19]; A549, read-out: pTGI) was 15500 nM, the GI50 ([20]; read-out: pGI50 (converted)) was 372 nM and the CC50 ([20]; read-out: pLC50 (converted)) was greater than 100000 nM. The TGI ([20]; read-out: pTGI) was 42700 nM, the GI50 ([21]; RPMI8266, read-out: pGI50 (converted)) was 288 nM and the CC50 ([21]; RPMI8266, read-out: pLC50 (converted)) was greater than 100000 nM. For the same molecule, the TGI ([21]; RPMI8266, read-out: pTGI) was 1660 nM, the IC50 [22] was 62000 nM and the GI50 ([23]; read-out: pGI50 (converted)) was 129 nM. It also gave a CC50 ([23]; read-out: pLC50 (converted)) of 25700 nM, a TGI ([23]; read-out: pTGI) of 776 nM and a GI50 ([24]; MDA-MB-468, read-out: pGI50 (converted)) of 204 nM. It also gave a CC50 ([24]; MDA-MB-468, read-out: pLC50 (converted)) of 2140 nM, a TGI ([24]; MDA-MB-468, read-out: pTGI) of 550 nM and a GI50 ([25]; MDA-MB-435, read-out: pGI50 (converted)) of 631 nM. The CC50 ([25]; MDA-MB-435, read-out: pLC50 (converted)) was 5620 nM, the TGI ([25]; MDA-MB-435, read-out: pTGI) was 2090 nM and the GI50 ([26]; read-out: pGI50 (converted)) was 269 nM. For the same molecule, the CC50 ([26]; read-out: pLC50 (converted)) was 93300 nM, the TGI ([26]; read-out: pTGI) was 955 nM and the GI50 ([27]; read-out: pGI50 (converted)) was 69200 nM. The CC50 ([27]; read-out: pLC50 (converted)) was greater than 100000 nM, the TGI ([27]; read-out: pTGI) was greater than 100000 nM and the GI50 ([28]; PC-3, read-out: pGI50 (converted)) was 324 nM. For the same molecule, the CC50 ([28]; PC-3, read-out: pLC50 (converted)) was 100000 nM, the TGI ([28]; PC-3, read-out: pTGI) was 2240 nM and the GI50 ([29]; UO-31, read-out: pGI50 (converted)) was 2400 nM. It also gave a CC50 ([29]; UO-31, read-out: pLC50 (converted)) greater than 100000 nM, a TGI ([29]; UO-31, read-out: pTGI) of 25700 nM and a GI50 ([30]; TK-10, read-out: pGI50 (converted)) of 2140 nM. It also gave a CC50 ([30]; TK-10, read-out: pLC50 (converted)) greater than 100000 nM, a TGI ([30]; TK-10, read-out: pTGI) of 8910 nM and a GI50 ([31]; RXF 393, read-out: pGI50 (converted)) of 389 nM. The CC50 ([31]; RXF 393, read-out: pLC50 (converted)) was 8130 nM, the TGI ([31]; RXF 393, read-out: pTGI) was 1510 nM and the GI50 ([32]; CAKI-1, read-out: pGI50 (converted)) was 6920 nM. The CC50 ([32]; CAKI-1, read-out: pLC50 (converted)) was 100000 nM, the TGI ([32]; CAKI-1, read-out: pTGI) was 32400 nM and the GI50 ([33]; read-out: pGI50 (converted)) was 2950 nM. It also gave a CC50 ([33]; read-out: pLC50 (converted)) greater than 100000 nM, a TGI ([33]; read-out: pTGI) of 22400 nM and an MTD [34] of 50 mg/kg.
